Results reported in a melting point compilation (Tetko et al.; mined from patent text by program, amines drawn as free bases though some values may be those of a salt).

| SMILES | melting point |
| --- | --- |
| CC(C)OCN1CCN(Cc2ccc(Cl)nc2)C1=NC#N | 85 to 87 °C |
| O=C(CCSC(=S)Nc1ccc(Cl)cn1)c1ccccc1 | 159 °C |
| CCc1nc(CC(=O)O)no1 | 58 to 60 °C |
| CC(=O)N1C(=O)C(C(=O)c2cccs2)c2ccccc21 (stereo not given) | 139 to 140 °C |
| CC(C)(C)c1cc(C2=NC(=S)N=N2)cc(C(C)(C)C)c1O | > 250 °C |
| CCCOC(=O)C(C)NC(=O)C(CC(=O)O)NC(=O)C1CCCN1 (stereo not given) | 233 to 235 °C |
| CCc1nccn1-c1ccc(NC(=O)c2ccc(Cl)cc2)cc1 | 265 to 267 °C |
| Cc1cc(O)c(C23CC4CC(CC(C4)C2)C3)cc1-c1cccc(C=C2SC(N3CCOCC3)=NC2=O)c1 | 327 to 329 °C |
| CC(=O)N(C)c1ccc2sc3ccc(Br)cc3c(=O)c2c1 | 240 to 241 °C |
| NC(=O)C1CCc2[nH]c3ccc(F)c(Cl)c3c2C1 (stereo not given) | 226 to 227 °C |
| CC(=O)NCCNC1=NS(=O)(=O)c2cc(Cl)ccc2N1 | 295 to 297 °C |
| CC(C)(C)c1cc(-c2nc(CN3CCCC3)no2)cc(C(C)(C)C)c1O | 100 to 102 °C |
| O=C(CCN1CCN(c2cccc(Cl)c2Cl)CC1)N1CCc2ccccc21 | 157 to 158 °C |
| Oc1ccc2c(c1)C13CCCCC1N(C2)NCC3 (single isomer, unassigned; (-)) | 244 to 246 °C |
| O=C(O)CCCC(=O)N1CCC(C2c3ccccc3C=Cc3ccccc32)CC1 | 180 to 186 °C |
| Cc1cc(CN2CCN(C)CC2)cc2c1Cc1c(-c3ccsc3)n[nH]c1-2 | 235 to 236 °C |
| CCOc1ccc(C2=NN(C3CCN(C(=O)NC(C)(C)C)CC3)C(=O)[C@@H]3CC=CC[C@H]23)cc1OCC | 145 to 148 °C |
| CCOc1ccc(C(=O)N(C)C)c2c1C(=O)N(Cn1nnn(-c3ccccc3)c1=S)S2(=O)=O | 172 to 173 °C |
| Cc1cc(C)c(S(=O)(=O)N=[N+]=[N-])c(C)c1S(=O)(=O)N=[N+]=[N-] | 54 to 56 °C |
| O=C1CC(c2cccc(-c3nc(CO)co3)c2)=Nc2ccc(-n3cccc3)cc2N1 | 240 to 242 °C |
| CN(C)S(=O)(=O)c1c(S(N)(=O)=O)ccn1C | 146 to 148 °C |
| CC1=C(C(=O)OC(C)C)C(c2cccc([N+](=O)[O-])c2)N(C(=O)NCc2ccccc2)C(=O)N1 (stereo not given) | 184 to 185 °C |

| SMILES | melting point |
| --- | --- |
| CC1(C)N=C(c2ccccc2Cl)c2cc([N+](=O)[O-])ccc2NC1=O | 125 to 127 °C |
| CCOC(=O)c1cc(OC(C)=O)c2cc(N3CCOCC3)ccc2c1 | 135 to 137 °C |
| COc1nc(CO)c(CO)n1C | 110 to 119 °C |
| O=c1[nH]ncc2[nH]c(-c3ccc(OC(F)F)c(OC4CC4)c3)c(C3CC3)c12 | 248 to 249 °C |
| CC/C(=C(\c1ccc(/C=C/C(=O)O)cc1)c1ccc(OC(=O)c2cccs2)cc1)c1ccccc1 | 175 to 176 °C |
| COC(=O)N(C)CC#CCn1ccnc1 | 113 to 115 °C |
| CC(C)C[C@@H](C(=O)NCCCC(c1ccc(F)cc1)c1ccc(F)cc1)N1CCCCC1 | 52 to 70 °C |
| C(=C1\CN2CCC1CC2)/N1c2ccccc2Sc2ccccc21 | 149 to 153 °C |
| Cc1nc(C(=O)O)cnc1Cl | 116 to 117 °C |
| O=C(O)c1c[nH]cc2c(=O)n(-c3ccccc3)nc1-2 | 287 to 302 °C |
| COCCN1CCN(C)c2cc(Nc3ncc(Cl)c(N[C@@H]4CCCC[C@H]4NS(C)(=O)=O)n3)c(OC)cc2C1 | 89 °C |
| COc1c(C)c(OC(=O)c2c(C)c(C)c(OCCCN3C(=O)c4ccccc4S3(O)O)c(C)c2OC)c(C)c(C)c1C(=O)O | 222 to 223 °C |
| ONCc1cccc(I)c1 | 63 to 70 °C |
| OC(COc1ccccc1-c1nc2ccccc2s1)CN1CCN(C(c2ccccc2)c2ccccc2)CC1 (stereo not given) | 152 to 155 °C |
| CN(Cc1ccccc1)C1CCN(c2c(F)cc([N+](=O)[O-])c(F)c2CCl)C1 (stereo not given) | 94 to 98 °C |
| CC(C)Cn1c(=O)n(C)c(=O)c2cc(C(=O)c3cccc4ccccc34)sc21 | 150 °C |
| C[C@H]1Oc2ccc(Br)cc2C(=O)N2CCCC[C@@H]12 (racemic) | 105 to 106 °C |
| COc1ccc(C=C2NC(=O)NC2=O)cc1OC | 153 to 158 °C |
| CCOC(=O)C(=O)Nc1cc(C(F)(F)F)cc(C(F)(F)F)c1[N+](=O)[O-] | 115 °C |
| N#CN1CCSC1=NC1CCc2ccccc21 (stereo not given) | 90 to 91 °C |
| CC[C@H](C)[C@H](NC(=O)O[C@@H](CC(C)C)C(=O)OCc1ccccc1)C(N)=O | 140 to 141 °C |
| CON1CCC2(CC1)C(O)=C(c1c(C)cc(C)cc1C)C(=O)N2C | 171 to 178 °C |

| SMILES | melting point |
| --- | --- |
| COc1cccc(Oc2cccc(-c3ccccc3)c2)c1 | 41 to 42 °C |
| CC1=C(C(=O)OC(C)(C)C)C(c2ccccc2[N+](=O)[O-])C(C(=O)OC(C)(C)C)=C(C)N1 | 159 to 161 °C |
| O=C(Nc1ccc(C(=O)SCC2C(=O)OCC2c2ccccc2)cc1)OCc1ccccc1 (stereo not given) | 160 to 162 °C |
| Cn1c(Cl)c(Cl)c(C(=O)c2cc(C(C)(C)C)c(O)c(C(C)(C)C)c2)c1Cl | 155 to 156 °C |
| CS(=O)(=O)Nn1c(=O)[nH]c2cc([N+](=O)[O-])c(-n3ccnc3)cc2c1=O | > 270 °C |
| CC(C)C(O)(C=Cc1ccc([N+](=O)[O-])cc1)CC(=O)OCc1ccccc1 (racemic) | 64 to 65 °C |
| COCCN1CC(=O)C(C#N)=C1C#N | 108 to 110 °C |
| O=C(O)Cc1c(-c2ccccc2)c2cc3c(cc2oc1=O)CCC3 | 216 to 218 °C |
| Cn1cc(C(=O)O)c(=O)c2cc(F)c(N3CCCN(c4ncccn4)CC3)c(C(F)(F)F)c21 | 243 to 245 °C |
| CCn1cc(C(=O)O)c(=O)c2cc(F)c(N3CCSC3)nc21 | 268 to 270 °C |
| O=S(=O)(c1cccs1)N(c1cccc2cc(C3=NCC(CN4CCOCC4)S3)[nH]c12)C(F)F (stereo not given) | 185 to 186 °C |
| C=CC[C@H]1C(=O)N(S(C)(=O)=O)[C@H]2CCN(C(=O)OCc3ccccc3)[C@H]12 (relative stereo) | 92 to 94 °C |
| COc1cc2c(cc1OC)CCCC(C(=O)N1CCN(C(=O)c3cc(OC)c(OC)c(OC)c3)C(C(=O)N(C)C)C1)=C2 (stereo not given) | 177 to 178 °C |
| CCCc1nc(N)nc(O)c1I | 233 to 234 °C |
| CON=C(C(=O)O)c1nc(NC=O)sc1Br | 165 to 167 °C |
| Cn1c(-c2ccc(Cl)cc2)cc2cc(C(=O)O)ccc21 | > 260 °C |
| COc1ccc2c(c1)C(CCNC(C)=O)CCO2 (stereo not given) | 138 °C |
| O=C(c1cc([N+](=O)[O-])cc(C(F)(F)F)c1)N1CCC1 | 91 °C |
| CC(n1ncnn1)C(F)(c1ccc(OC(F)(F)F)cc1)c1ccc(OC(F)(F)F)cc1 (stereo not given) | 68 to 70 °C |
| O=c1cc(-c2cccc(Cl)c2)c2cc(C(c3ccc(Cl)cc3)n3ccnc3)cc3c2n1CCC3 (stereo not given) | 195 °C |
| Nc1ccc2c(n1)CCO2 | 129 to 131 °C |

Results, then the compound that gave them:

| melting point | SMILES |
| --- | --- |
| 126 to 127 °C | CCNc1nc(C#N)c(C#N)nc1-c1cccc(F)c1 |
| 267 to 268 °C | CC(C)(C)c1cc(NC(=O)c2csc(-c3ccc(N)cc3)n2)cc(C(C)(C)C)c1O |
| 123 to 124 °C | COc1cc(COc2nn(C)cc2C=O)ccc1OCc1nc(-c2ccccc2)oc1C |
| 183 to 185 °C | Cc1noc(NS(=O)(=O)c2ccsc2C(=O)Nc2cccc(C(=O)O)c2)c1Br |
| 177 °C | CC(=O)Oc1ccccc1-c1nn2cc(-c3ccccc3)nc2s1 |
| 202 to 203 °C | N#CNC=Nc1ccc(-c2ncc[nH]2)cc1 |
| 164 °C | COc1ccc2cc(C(=O)CCC(=O)c3ccccc3)ccc2c1 |
| 200 °C | COC(=O)c1cnc2cccc(O)c2c1 |
| 191 to 193 °C | CC1(C)OC(=O)C(=CNc2ncnc3ccccc23)C(=O)O1 |
| 99 to 100 °C | CC(C)CCNc1nc2ccccc2cc1[N+](=O)[O-] |
| 61 °C | Cc1cc(CCCCCCCc2ccc(C#N)cc2)on1 |
| 154 to 155 °C | Cc1ccc(-c2ccccc2)c(NC(=N)N2CCOCC2)c1 |
| 305 to 307 °C | Cc1ccc(CNc2cccc(C(=O)O)c2C(=O)O)o1 |
| 119 to 121 °C | O=C(CCCCCNC(=O)C(=O)c1cn2c3c(cccc13)CCC2)NOCc1ccccc1 |
| 275 to 276 °C | Cc1nn(C)c2ncc(C(=O)O)c(NCS(=O)(=O)c3ccc(F)cc3)c12 |
| 120 °C | N#CCOc1cccc2[nH]c3ccccc3c12 |
| 235 °C | CC(=O)N1CCc2sc(C(=O)CCCN3CCC(c4noc5cc(F)ccc45)CC3)cc2C1 |
| 169 to 171 °C | CCCCN1C(N)=NC(Oc2cccc(C)c2)=NS1(=O)=O |

| melting point | SMILES |
| --- | --- |
| 109 to 111 °C | CCOc1cc(C(=CC#N)c2ccc(OC)c(-n3cccc3)c2)ccc1OC |
| 66 to 68 °C | Brc1ccc(OCCCCCCN2CCN(c3nccs3)CC2)cc1 |
| 254 to 256 °C | CC1CC(=O)NN=C1c1ccc(-n2ccc(=O)cc2)cc1 (stereo not given) |
| 88 to 90 °C | C=CC(=O)OCCCCCCN(C)c1ccc(C=Cc2ccc(S(C)(=O)=O)cc2)cc1 |
| 115 °C | CCCN(CCCCc1c[nH]c2ccc(F)cc12)C1COc2c(F)ccc(C(N)=O)c2C1 (stereo not given) |
| 68.5 to 70 °C | CCOC(=O)C(=O)c1ccc(OCC(=O)c2c(C)cc(C)cc2C)cc1 |
| 157 to 158 °C | FC(F)(F)c1ccc(/C=C/c2nc(COc3ccc(CCCn4ccnn4)cc3)co2)cc1 |
| 95 to 96 °C | COc1cccc(C(=O)Nc2cc(C(=O)NCc3ccccc3)ccn2)c1 |
| 159 to 160 °C | CCCc1nc2c(N)nc(C)c(C)c2n1CCCCN(O)C(=O)Nc1ccccc1 |
| 78 to 80 °C | CCCCCC(Oc1ccc(C2=CCCCC2)cc1)C(=O)O (stereo not given) |
| 170 to 175 °C | CCN(CC)CCc1cccc(Nc2ncc3c(n2)N(c2cccc(C(N)=O)c2)C(=O)N(c2ccc(OC)cc2)C3C)c1 (stereo not given) |
| 60 °C | CCOC(=O)c1ccc(CC#N)cc1Cl |
| 148 to 150 °C | CCOC(=O)c1c(-c2ccc(F)cc2)cc(-c2cccc3c2OCO3)nc1C(C)C |
| 193 to 194 °C | CC(=O)c1ccc(S(=O)(=O)NCCc2ccc(CC(=O)O)cc2)cc1 |
| 178 to 181 °C | CCc1ccc2[nH]c(=O)oc(=O)c2c1 |
| 91 to 93 °C | COC(=O)COc1ccc(OC)cc1NC(=O)c1ccc(OCCCCc2ccccc2)cc1 |
| 140 to 142 °C | CCOC(=O)c1ccc(N)c(OCC#N)c1 |
